system: Tetranychus urticae; test: Tetranychus urticae spray test, OP-resistant (TETRUR); type: in vivo; conditions: application rate of 100 g/ha; after 6 days
Procedure, shortened: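 Mortality as % efficacy (0% = no mites killed) read 6 days after spraying. Formulation: active ingredient in acetone/dimethylformamide plus emulsifier, diluted with emulsifier-containing water, applied to Phaseolus vulgaris leaf discs carrying every life stage of OP-resistant spider mites.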

With CCCCOc1nn(-c2cc([S+]([O-])CC(F)(F)F)c(C)cc2F)c(=O)n1C1CC1 (stereo not drawn) [Example 124] the efficacy was 90%.

same assay, conditions: application rate of 500 g/ha; after 6 days

Going from CCOCc1nn(-c2cc(SCC(F)(F)F)c(C)cc2F)c(=O)n1C1CC1 [Example 73] to CCc1nn(-c2cc(SCC(F)(F)F)c(C)cc2F)c(=O)n1C1CC1 [Example 77], the efficacy rises from 90% to 100%.

COCCc1nn(-c2cc(SCC(F)(F)F)c(C)cc2F)c(=O)n1C1CC1 [Example 75] and CCCc1nn(-c2cc(SCC(F)(F)F)c(C)cc2F)c(=O)n1C1CC1 [Example 79] are the same in efficacy: 100% for the first, 100% for the second.

Cc1cc(F)c(-n2nc(CC(C)C)n(C3CC3)c2=O)cc1SCC(F)(F)F [Example 83] and CCC(C)c1nn(-c2cc(SCC(F)(F)F)c(C)cc2F)c(=O)n1C1CC1 (stereo not drawn) [Example 85] are the same in efficacy: 100% for the first, 100% for the second.

Cc1cc(F)c(-n2nc(C3CCC3)n(C3CC3)c2=O)cc1SCC(F)(F)F [Example 87] and CCOc1nn(-c2cc(SCC(F)(F)F)c(C)cc2F)c(=O)n1C1CC1 [Example 120] are the same in efficacy: 100% for the first, 100% for the second.

Compared with COCCn1c(C(F)(F)F)nn(-c2cc(SCC(F)(F)F)c(C)cc2F)c1=O [Example 89], CCCOc1nn(-c2cc(SCC(F)(F)F)c(C)cc2F)c(=O)n1C1CC1 [Example 113] is lower in efficacy: 100% for the first, 90% for the second.

COc1nn(-c2ccc(C)c(SCC(F)(F)F)c2)c(=O)n1C1CC1 [Example 90] and CCOc1nn(-c2ccc(C)c(SCC(F)(F)F)c2)c(=O)n1C1CC1 [Example 122] are the same in efficacy: 100% for the first, 100% for the second.

Cc1ccc(-n2nc(OC(C)C)n(C3CC3)c2=O)cc1SCC(F)(F)F [Example 91] and CCCOc1nn(-c2ccc(C)c(SCC(F)(F)F)c2)c(=O)n1C1CC1 [Example 123] are the same in efficacy: 100% for the first, 100% for the second.

First: COc1nn(-c2cc([S+]([O-])CC(F)(F)F)c(Cl)cc2Cl)c(=O)n1C (stereo not drawn) [Example 97]
Second: CCOc1nn(-c2cc([S+]([O-])CC(F)(F)F)c(C)cc2F)c(=O)n1C1CC1 (stereo not drawn) [Example 121]
The efficacy of the first is lower: 90% for the first, 100% for the second.

Compared with Cc1cc(F)c(-n2nc(OC(C)C)n(C3CC3)c2=O)cc1[S+]([O-])CC(F)(F)F (stereo not drawn) [Example 100], CCCOc1nn(-c2cc([S+]([O-])CC(F)(F)F)c(C)cc2F)c(=O)n1C1CC1 (stereo not drawn) [Example 112] is lower in efficacy: 100% for the first, 90% for the second.

Going from COc1nn(-c2cc(SCC(F)(F)F)c(Cl)cc2F)c(=O)n1C1CC1 [Example 114] to CCCCOc1nn(-c2cc(SCC(F)(F)F)c(C)cc2F)c(=O)n1C1CC1 [Example 125], the efficacy falls from 100% to 90%.

system: not listed separately; test: log P by HPLC (OECD Guideline 117), method [a] acidic range; type: physicochemical; conditions: HPLC, method [a] acidic range
Experimental: (§1) The log P values were determined analogously to OECD Guideline 117 (EC Directive 92/69/EEC) by HPLC (high-performance liquid chromatography) using reversed-phase columns (C 18), by the following methods:
[a] The LC-MS determination in the acidic range is effected at pH 2.7 with 0.1% aqueous formic acid and acetonitrile (contains 0.1% formic acid) as eluents; linear gradient from 10% acetonitrile to 95% acetonitrile.

CCOCc1nn(-c2cc(SCC(F)(F)F)c(C)cc2F)c(=O)n1C1CC1 [Example 73] and CCc1nn(-c2cc(SCC(F)(F)F)c(C)cc2F)c(=O)n1C1CC1 [Example 77] are within 0.2 log units of each other in “logP[a]” value: 3.33 for the first, 3.24 for the second.

Going from COCCc1nn(-c2cc(SCC(F)(F)F)c(C)cc2F)c(=O)n1C1CC1 [Example 75] to CCCc1nn(-c2cc(SCC(F)(F)F)c(C)cc2F)c(=O)n1C1CC1 [Example 79], the “logP[a]” value rises from 2.97 to 3.64.

Cc1cc(F)c(-n2nc(CC(C)C)n(C3CC3)c2=O)cc1SCC(F)(F)F [Example 83] and CCC(C)c1nn(-c2cc(SCC(F)(F)F)c(C)cc2F)c(=O)n1C1CC1 (stereo not drawn) [Example 85] are within 0.2 log units of each other in “logP[a]” value: 3.99 for the first, 4.01 for the second.

Compared with Cc1cc(F)c(-n2nc(C3CCC3)n(C3CC3)c2=O)cc1SCC(F)(F)F [Example 87], CCOc1nn(-c2cc(SCC(F)(F)F)c(C)cc2F)c(=O)n1C1CC1 [Example 120] is lower in “logP[a]” value: 3.85 for the first, 3.58 for the second.

Compared with COCCn1c(C(F)(F)F)nn(-c2cc(SCC(F)(F)F)c(C)cc2F)c1=O [Example 89], CCCOc1nn(-c2cc(SCC(F)(F)F)c(C)cc2F)c(=O)n1C1CC1 [Example 113] is higher in “logP[a]” value: 3.80 for the first, 4.00 for the second.

Compared with COc1nn(-c2ccc(C)c(SCC(F)(F)F)c2)c(=O)n1C1CC1 [Example 90], CCOc1nn(-c2ccc(C)c(SCC(F)(F)F)c2)c(=O)n1C1CC1 [Example 122] is higher in “logP[a]” value: 3.74 for the first, 4.19 for the second.

Cc1ccc(-n2nc(OC(C)C)n(C3CC3)c2=O)cc1SCC(F)(F)F [Example 91] and CCCOc1nn(-c2ccc(C)c(SCC(F)(F)F)c2)c(=O)n1C1CC1 [Example 123] are within 0.2 log units of each other in “logP[a]” value: 4.59 for the first, 4.66 for the second.

First: COc1nn(-c2cc([S+]([O-])CC(F)(F)F)c(Cl)cc2Cl)c(=O)n1C (stereo not drawn) [Example 97]
Second: CCOc1nn(-c2cc([S+]([O-])CC(F)(F)F)c(C)cc2F)c(=O)n1C1CC1 (stereo not drawn) [Example 121]
The “logP[a]” value of the first is lower: 2.26 for the first, 2.47 for the second.

Cc1cc(F)c(-n2nc(OC(C)C)n(C3CC3)c2=O)cc1[S+]([O-])CC(F)(F)F (stereo not drawn) [Example 100] and CCCOc1nn(-c2cc([S+]([O-])CC(F)(F)F)c(C)cc2F)c(=O)n1C1CC1 (stereo not drawn) [Example 112] are within 0.2 log units of each other in “logP[a]” value: 2.82 for the first, 2.83 for the second.

Compared with COc1nn(-c2cc(SCC(F)(F)F)c(Cl)cc2F)c(=O)n1C1CC1 [Example 114], CCCCOc1nn(-c2cc(SCC(F)(F)F)c(C)cc2F)c(=O)n1C1CC1 [Example 125] is higher in “logP[a]” value: 3.32 for the first, 4.41 for the second.

In the case of CCCCOc1nn(-c2cc([S+]([O-])CC(F)(F)F)c(C)cc2F)c(=O)n1C1CC1 (stereo not drawn) [Example 124], the “logP[a]” value is reported as 3.24.

system: not listed separately; test: log P by HPLC (OECD Guideline 117), method [b] neutral range; type: physicochemical; conditions: HPLC, method [b] neutral range
Experimental: as §1
[b] The LC-MS determination in the neutral range is effected at pH 7.8 with 0.001 molar aqueous ammonium hydrogencarbonate solution and acetonitrile as eluents; linear gradient from 10% acetonitrile to 95% acetonitrile.

CCOCc1nn(-c2cc(SCC(F)(F)F)c(C)cc2F)c(=O)n1C1CC1 [Example 73] and CCc1nn(-c2cc(SCC(F)(F)F)c(C)cc2F)c(=O)n1C1CC1 [Example 77] are within 0.2 log units of each other in “logP[b]” value: 3.27 for the first, 3.18 for the second.

Going from COCCc1nn(-c2cc(SCC(F)(F)F)c(C)cc2F)c(=O)n1C1CC1 [Example 75] to CCCc1nn(-c2cc(SCC(F)(F)F)c(C)cc2F)c(=O)n1C1CC1 [Example 79], the “logP[b]” value rises from 2.89 to 3.56.

Cc1cc(F)c(-n2nc(CC(C)C)n(C3CC3)c2=O)cc1SCC(F)(F)F [Example 83] and CCC(C)c1nn(-c2cc(SCC(F)(F)F)c(C)cc2F)c(=O)n1C1CC1 (stereo not drawn) [Example 85] are within 0.2 log units of each other in “logP[b]” value: 3.93 for the first, 3.94 for the second.

First: Cc1cc(F)c(-n2nc(C3CCC3)n(C3CC3)c2=O)cc1SCC(F)(F)F [Example 87]
Second: CCOc1nn(-c2cc(SCC(F)(F)F)c(C)cc2F)c(=O)n1C1CC1 [Example 120]
The “logP[b]” value of the first is higher: 3.77 for the first, 3.44 for the second.

COCCn1c(C(F)(F)F)nn(-c2cc(SCC(F)(F)F)c(C)cc2F)c1=O [Example 89] and CCCOc1nn(-c2cc(SCC(F)(F)F)c(C)cc2F)c(=O)n1C1CC1 [Example 113] are within 0.2 log units of each other in “logP[b]” value: 3.73 for the first, 3.92 for the second.

Going from COc1nn(-c2ccc(C)c(SCC(F)(F)F)c2)c(=O)n1C1CC1 [Example 90] to CCOc1nn(-c2ccc(C)c(SCC(F)(F)F)c2)c(=O)n1C1CC1 [Example 122], the “logP[b]” value rises from 3.67 to 4.04.

Cc1ccc(-n2nc(OC(C)C)n(C3CC3)c2=O)cc1SCC(F)(F)F [Example 91] and CCCOc1nn(-c2ccc(C)c(SCC(F)(F)F)c2)c(=O)n1C1CC1 [Example 123] are within 0.2 log units of each other in “logP[b]” value: 4.54 for the first, 4.57 for the second.

COc1nn(-c2cc([S+]([O-])CC(F)(F)F)c(Cl)cc2Cl)c(=O)n1C (stereo not drawn) [Example 97] and CCOc1nn(-c2cc([S+]([O-])CC(F)(F)F)c(C)cc2F)c(=O)n1C1CC1 (stereo not drawn) [Example 121] are within 0.2 log units of each other in “logP[b]” value: 2.24 for the first, 2.43 for the second.

Cc1cc(F)c(-n2nc(OC(C)C)n(C3CC3)c2=O)cc1[S+]([O-])CC(F)(F)F (stereo not drawn) [Example 100] and CCCOc1nn(-c2cc([S+]([O-])CC(F)(F)F)c(C)cc2F)c(=O)n1C1CC1 (stereo not drawn) [Example 112] are the same in “logP[b]” value: 2.79 for the first, 2.79 for the second.

Compared with COc1nn(-c2cc(SCC(F)(F)F)c(Cl)cc2F)c(=O)n1C1CC1 [Example 114], CCCCOc1nn(-c2cc(SCC(F)(F)F)c(C)cc2F)c(=O)n1C1CC1 [Example 125] is higher in “logP[b]” value: 3.27 for the first, 4.35 for the second.

For CCCCOc1nn(-c2cc([S+]([O-])CC(F)(F)F)c(C)cc2F)c(=O)n1C1CC1 (stereo not drawn) [Example 124], the “logP[b]” value was 3.20.
